We go through seven compounds from patent US10336732B2, “1-heterocyclyl isochromanyl compounds and analogs for treating CNS disorders” (Sunovion Pharmaceuticals Inc., priority 2015, dated 2019).

SMILES strings stand for the structures.

The subject of this assay is mice. Kind of assay: Neuropharmacological assay (SmartCube), behavioral signature of compound-treated mice. In kind it is in vivo. Particulars: i.p. 15 min before behavioral test, most efficacious dose(s) of 3 doses. The essentials:
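Mice received compound i.p. in NMP/PEG/propylene glycol vehicle at 3 doses, 15 min before testing. Video-captured behavior was algorithmically compared with a reference-drug signature database.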
On to `Cc1cccc2c1[C@@H]([C@H]1CCCN1)OCC2` [Compound I-24, (R)-2-((S)-8-methylisochroman-1-yl)pyrrolidine], for which the “AD: ADHD (probability that behavioral signature matches class)” value (from here on “AD: ADHD”) is “+ (LOQ ≤ + <5%)”, the “AG: analgesic (probability that behavioral signature matches class)” value (“AG: analgesic” for short) is “++ (5% ≤ ++ <25%)”, the “AX: anxiolytic (probability that behavioral signature matches class)” value (from here on “AX: anxiolytic”) is “++ (5% ≤ ++ <25%)” and the “CE: cognitive enhancer (probability that behavioral signature matches class)” value (shortened to “CE: cognitive enhancer”) was “++ (5% ≤ ++ <25%)”. For the same compound, the “DP: anti-depressant (probability that behavioral signature matches class)” value (“DP: anti-depressant” below) is reported as “+++ (25% ≤ +++ <50%)”, the “HA: hallucinogen (probability that behavioral signature matches class)” value (shortened to “HA: hallucinogen”) is “+ (LOQ ≤ + <5%)”, the “MS: mood stabilizer (probability that behavioral signature matches class)” value (from here on “MS: mood stabilizer”) was “++ (5% ≤ ++ <25%)” and the “PS: anti-psychotic (probability that behavioral signature matches class)” value (“PS: anti-psychotic” below) is on record as “++ (5% ≤ ++ <25%)”. Also, the “SD: sedative hypnotic (probability that behavioral signature matches class)” value (from here on “SD: sedative hypnotic”) is reported as “++ (5% ≤ ++ <25%)”, the “UN: uncharacterized CNS activity (probability that behavioral signature matches class)” value (from here on “UN: uncharacterized CNS activity”) is reported as “+ (LOQ ≤ + <5%)” and the “XG: anxiogenic (probability that behavioral signature matches class)” value (“XG: anxiogenic” for short) is recorded as “+ (LOQ ≤ + <5%)”.

As to `Fc1ccc2c(c1)[C@@H](F)CO[C@H]2[C@@H]1CCCN1` [Compound I-138, (S)-2-((1R,4R)-4,6-difluoroisochroman-1-yl)pyrrolidine], the “AD: ADHD” value is “+ (LOQ ≤ + <5%)”, the “AG: analgesic” value is given as “+ (LOQ ≤ + <5%)”, the “AX: anxiolytic” value is listed as “++ (5% ≤ ++ <25%)” and the “CE: cognitive enhancer” value is listed as “+ (LOQ ≤ + <5%)”. Besides, the “DP: anti-depressant” value is recorded as “++ (5% ≤ ++ <25%)”, the “HA: hallucinogen” value was “+ (LOQ ≤ + <5%)”, the “MS: mood stabilizer” value is on record as “+ (LOQ ≤ + <5%)” and the “PS: anti-psychotic” value is recorded as “+++ (25% ≤ +++ <50%)”. Also, the “SD: sedative hypnotic” value is listed as “+ (LOQ ≤ + <5%)”, the “UN: uncharacterized CNS activity” value is “++ (5% ≤ ++ <25%)” and the “XG: anxiogenic” value was “+ (LOQ ≤ + <5%)”.

Turning to `Cc1ccc2c(c1)[C@@H](C1CNC1)OCC2` [Compound I-116, (R)-3-(7-methylisochroman-1-yl)azetidine], the “AD: ADHD” value is given as “+ (LOQ ≤ + <5%)”, the “AG: analgesic” value was “+ (LOQ ≤ + <5%)”, the “AX: anxiolytic” value is reported as “++ (5% ≤ ++ <25%)” and the “CE: cognitive enhancer” value was “+ (LOQ ≤ + <5%)”. Further, the “DP: anti-depressant” value is “++ (5% ≤ ++ <25%)”, the “HA: hallucinogen” value was “+ (LOQ ≤ + <5%)”, the “MS: mood stabilizer” value is listed as “+ (LOQ ≤ + <5%)” and the “PS: anti-psychotic” value is “+++ (25% ≤ +++ <50%)”. For the same compound, the “SD: sedative hypnotic” value is “++ (5% ≤ ++ <25%)”, the “UN: uncharacterized CNS activity” value is given as “+ (LOQ ≤ + <5%)” and the “XG: anxiogenic” value is recorded as “+ (LOQ ≤ + <5%)”.

With `c1ccc(-c2ccc3c(c2)CCO[C@H]3[C@@H]2CCCN2)nc1` [Compound I-58, 2-((R)-1-((S)-pyrrolidin-2-yl)isochroman-6-yl)pyridine], the “AD: ADHD” value is on record as “+ (LOQ ≤ + <5%)”, the “AG: analgesic” value is listed as “++ (5% ≤ ++ <25%)”, the “AX: anxiolytic” value is reported as “++ (5% ≤ ++ <25%)” and the “CE: cognitive enhancer” value is “+ (LOQ ≤ + <5%)”. The “DP: anti-depressant” value is on record as “+++ (25% ≤ +++ <50%)”, the “HA: hallucinogen” value is on record as “+ (LOQ ≤ + <5%)”, the “MS: mood stabilizer” value is on record as “++ (5% ≤ ++ <25%)” and the “PS: anti-psychotic” value is reported as “++ (5% ≤ ++ <25%)”. Besides, the “SD: sedative hypnotic” value was “+ (LOQ ≤ + <5%)”, the “UN: uncharacterized CNS activity” value is recorded as “+ (LOQ ≤ + <5%)” and the “XG: anxiogenic” value was “+ (LOQ ≤ + <5%)”.

In the case of `c1cc2c(c3c1CO[C@@H]3[C@@H]1CCCN1)OCO2` [Compound I-142, (S)-2-((S)-6,8-dihydro-[1,3]dioxolo[4,5-e]isobenzofuran-8-yl)-pyrrolidine], the “AD: ADHD” value is “+ (LOQ ≤ + <5%)”, the “AG: analgesic” value is on record as “++ (5% ≤ ++ <25%)”, the “AX: anxiolytic” value is recorded as “+++ (25% ≤ +++ <50%)” and the “CE: cognitive enhancer” value is listed as “++ (5% ≤ ++ <25%)”. The “DP: anti-depressant” value was “++ (5% ≤ ++ <25%)”, the “HA: hallucinogen” value is recorded as “+ (LOQ ≤ + <5%)”, the “MS: mood stabilizer” value was “+ (LOQ ≤ + <5%)” and the “PS: anti-psychotic” value is on record as “++ (5% ≤ ++ <25%)”. For the same compound, the “SD: sedative hypnotic” value is recorded as “+ (LOQ ≤ + <5%)”, the “UN: uncharacterized CNS activity” value is “++ (5% ≤ ++ <25%)” and the “XG: anxiogenic” value is “+ (LOQ ≤ + <5%)”.

As for `C[C@]1([C@H]2CCCN2)OCc2cc(F)ccc21` [Compound I-125, (R)-2-((S)-5-fluoro-1-methyl-1,3-dihydroisobenzofuran-1-yl)pyrrolidine], the “AD: ADHD” value is listed as “+ (LOQ ≤ + <5%)”, the “AG: analgesic” value is “++ (5% ≤ ++ <25%)”, the “AX: anxiolytic” value was “++ (5% ≤ ++ <25%)” and the “CE: cognitive enhancer” value is “++ (5% ≤ ++ <25%)”. For the same compound, the “DP: anti-depressant” value was “++++ (50% ≤ ++++)”, the “HA: hallucinogen” value is “+ (LOQ ≤ + <5%)”, the “MS: mood stabilizer” value is recorded as “+ (LOQ ≤ + <5%)” and the “PS: anti-psychotic” value was “+ (LOQ ≤ + <5%)”. Further, the “SD: sedative hypnotic” value is reported as “++ (5% ≤ ++ <25%)”, the “UN: uncharacterized CNS activity” value is reported as “+ (LOQ ≤ + <5%)” and the “XG: anxiogenic” value is listed as “+ (LOQ ≤ + <5%)”.

On to `COc1cccc2c1[C@H]([C@@H]1CCCN1)OCC2` [Compound I-47, (S)-2-((R)-8-methoxyisochroman-1-yl)pyrrolidine], for which the “AD: ADHD” value is recorded as “+ (LOQ ≤ + <5%)”, the “AG: analgesic” value is recorded as “+ (LOQ ≤ + <5%)”, the “AX: anxiolytic” value is “++ (5% ≤ ++ <25%)” and the “CE: cognitive enhancer” value is “+ (LOQ ≤ + <5%)”. The “DP: anti-depressant” value is recorded as “+ (LOQ ≤ + <5%)”, the “HA: hallucinogen” value was “+ (LOQ ≤ + <5%)”, the “MS: mood stabilizer” value was “+ (LOQ ≤ + <5%)” and the “PS: anti-psychotic” value is reported as “+ (LOQ ≤ + <5%)”. Also, the “SD: sedative hypnotic” value was “+ (LOQ ≤ + <5%)”, the “UN: uncharacterized CNS activity” value is on record as “+ (LOQ ≤ + <5%)” and the “XG: anxiogenic” value was “+ (LOQ ≤ + <5%)”.
